Data on ten compounds can be found in publication PMC5802362 (Amino acids, 2016).

Molecules are shown by their SMILES.

In one data set the target is butyrylcholinesterase (Equus caballus, UniProt P81908). Put plainly: Inhibition constant. Type of data set: biochemical, equine. The conditions noted are these: BChE, 100 µM butyrylthiocholine, 2 % methanol, 25 °C, pH 7.5.
The next data set deals with BChE and AChE. The conditions noted are these: ref Saxena et al. 1997; cited from earlier work.
The conditions of data set [1]: calculated with VOIDOO; ref Saxena et al. 1997; cited from earlier work.

Sequence of butyrylcholinesterase (P81908 whole entry): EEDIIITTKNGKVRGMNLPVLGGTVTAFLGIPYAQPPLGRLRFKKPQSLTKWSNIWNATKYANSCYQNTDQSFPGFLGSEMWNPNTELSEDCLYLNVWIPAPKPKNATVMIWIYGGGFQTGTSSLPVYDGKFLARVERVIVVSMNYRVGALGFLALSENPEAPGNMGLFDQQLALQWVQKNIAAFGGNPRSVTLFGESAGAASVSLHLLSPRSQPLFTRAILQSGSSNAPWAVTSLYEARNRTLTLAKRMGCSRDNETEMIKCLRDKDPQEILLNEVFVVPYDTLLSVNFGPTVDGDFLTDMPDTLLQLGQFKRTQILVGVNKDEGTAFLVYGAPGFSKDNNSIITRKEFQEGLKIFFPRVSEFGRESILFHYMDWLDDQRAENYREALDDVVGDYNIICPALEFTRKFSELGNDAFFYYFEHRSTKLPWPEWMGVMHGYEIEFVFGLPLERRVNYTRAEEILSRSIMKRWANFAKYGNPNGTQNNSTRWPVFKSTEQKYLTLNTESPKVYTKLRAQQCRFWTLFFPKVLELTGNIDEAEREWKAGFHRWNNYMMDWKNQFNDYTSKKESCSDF

On to `O=C(N[C@@H](Cc1ccc(O)cc1)C(=O)O)OCC1c2ccccc2-c2ccccc21` [Fmoc-Tyr-O^−], for which, at butyrylcholinesterase, the Ki was 307 ± 13 µM.
In the case of `CCN(CC)C(C)CN1c2ccccc2Sc2ccccc21` (centres unmarked) [ethopropazine], in the data set on BChE and AChE, the “Difference in the KI value between BChE and AChE” value is given as 9000 fold. Also, in data set [1], the “van der Waals volume” value was 317.6 Å^3.
In turn, `CC[C@H](C)[C@H](NC(=O)OCC1c2ccccc2-c2ccccc21)C(=O)O` [Fmoc-Ile-O^−] returned a Ki at butyrylcholinesterase of 194 ± 13 µM.
The same measure, in the same setting: to `O=C(N[C@@H](Cc1c[nH]c2ccccc12)C(=O)O)OCC1c2ccccc2-c2ccccc21` [Fmoc-Trp-O^−] belongs 193 ± 21 µM.
For `CC(C)C[C@H](NC(=O)OCC1c2ccccc2-c2ccccc21)C(=O)O` [Fmoc-Leu-O^−], on butyrylcholinesterase, affinity was put at a Ki of 115 ± 11 µM.
`NCCCC[C@H](NC(=O)OCC1c2ccccc2-c2ccccc21)C(=O)O` [Fmoc-Lys-O^−] came in with a Ki at butyrylcholinesterase of 150 ± 10 µM.
Still for that read-out and setting: to `CC(C)C[C@H](NC(=O)OCc1ccccc1)C(=O)O` [Cbz-Leu-O^−] belongs 1150 ± 130 µM.
`NCCCC[C@H](NC(=O)OCc1ccccc1)C(=O)O` [Cbz-Lys-O^−] came in with a Ki on butyrylcholinesterase of 1540 ± 502 µM.
Consider `CC(C)[C@H](NC(=O)OCC1c2ccccc2-c2ccccc21)C(=O)O` [Fmoc-Val-O^−], for which affinity at butyrylcholinesterase was put at a Ki of 313 ± 14 µM.
On butyrylcholinesterase, `O=C(N[C@@H](Cc1ccccc1)C(=O)O)OCC1c2ccccc2-c2ccccc21` [Fmoc-Phe-O^−] gave a Ki of 330 ± 15 µM.
